Results reported in patent US8258290B2, “Glycomimetic inhibitors of the PA-IL lectin, PA-IIL lectin or both the lectins from pseudomonas” (priority 2005, dated 2012).

Experiments:
[1] = biological target: PA-IIL binding to human epithelial cells (Pseudomonas aeruginosa, UniProt Q9HYN5); assay: Inhibition of PA-IIL lectin binding to human buccal epithelial cells (flow cytometry); assay type: cell-based; conditions: FIG. 9A-9F, biotinylated PA-IIL, fluorescein-labeled streptavidin, FACS
Description: FIG. 9A-9F illustrates the inhibition of PA-IIL binding to human epithelial cells. Human buccal epithelial cells are incubated with biotinylated PA-IIL lectin followed by detection of bound lectin with fluorescein-labeled streptavidin. Fluorescently labeled cells are quantified by fluorescent-activated cell sorting (FIG. 9B).
Obtain sample of buccal cells by scraping inside of cheek and collecting in 2 mis PBS. Spin cells at 400 g for 7 minutes to generate cell pellet. Discard supernatant. Resuspend in cold TBS-Ca (50 mM TrisHCl, 150 mM NaCl, 2 mM CaCl2 pH 7.4) to cell concentration of 10^6 cells/ml. Aliquot 0.1 ml to each tube. Add biotinylated PA-I or PA-II to tubes (5μ/well of 1.0 mg/ml lectin). Add inhibitors to tubes (5 μl at desired concentration). Incubate on ice for 30 minutes. Wash cells once by adding 400 μl of cold TBS-Ca to each tube and spinning at 400 g for 7 minutes. Discard supernatant. Resuspend cells in 100 μl of cold TBS-Ca. Add streptavidin-FITC (2 μl/tube of 1 mg/ml, KPL Labs, Gaithersburg, Md.). Incubate 30 minutes on ice. Wash cells once by adding 400 μl of cold TBS-Ca to each tube and spinning at 400 g for 7 minutes. Discard supernatant. Resuspend cells in 500 μl of cold TBS-Ca. Analyze in flow cytometer.

PA-IL lectin = biological target: T1, PA-IL lectin (Pseudomonas aeruginosa, UniProt Q05097); assay: Assay for PA-IL antagonist activity (plate-coated PA-IL, α-galactose-PAA-biotin/streptavidin-HRP competition); assay type: binding; conditions: for inhibition of PA-IL lectin: FIG. 5
T1 construct: purchased Sigma-Aldrich, St. Louis, Mo
T1 sequence (Q05097 whole entry): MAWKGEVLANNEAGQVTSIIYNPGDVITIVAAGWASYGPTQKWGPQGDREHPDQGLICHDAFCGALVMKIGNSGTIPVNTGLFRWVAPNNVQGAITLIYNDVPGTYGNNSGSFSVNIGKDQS
Description: (§1) Wells of a microtiter plate (plate 1) are coated with PA-IL (Sigma-Aldrich, St. Louis, Mo.) by incubation for 2 hrs at 37° C. The wells are then blocked for 2 hrs by the addition of 1% bovine serum albumin (BSA) diluted in TBS-Ca (50 mM TrisHCl, 150 mM NaCl, 2 mM CaCl2 pH 7.4) mixed 1:1 v/v with Stabilcoat (Surmodics, Eden Prairie, Minn.). In a second low-binding round-bottom microtiter plate (plate 2), test antagonists are serial diluted in 1% BSA in TBS-Ca/Stabilcoat (60 μl/well). Preformed conjugates of α-galactose-PAA-biotin (GlycoTech Corp, Gaithersburg, Md.) mixed with streptavidin-HRP (KPL Labs, Gaithersburg, Md.) are added to each well of plate 2 (60 μl/well of 2 μg/ml). Plate 1 is then washed with TBS-Ca and 100 μl/well are transferred from plate 2 to plate 1. After incubation at room temperature for 2 hrs, plate 1 is washed and 100 μl of TMB reagent (KPL Labs, Gaithersburg, Md.) is added to each well. After incubation for 5 minutes at room temperature, the reaction is stopped by adding 100 μl/well of 1M H3PO4 and the absorbance of light at 450 nm is determined by a microtiter plate reader.

PA-IIL lectin = biological target: T2, PA-IIL lectin (Pseudomonas aeruginosa, UniProt Q9HYN5); assay: Assay for PA-IIL antagonist activity (plate-coated PA-IIL, fucose-PAA-biotin/streptavidin-HRP competition); assay type: binding; conditions: for inhibition of the PA-IIL lectin: FIG. 6
T2 construct: Dr. Wimmerova, Masaryk University, Brno, Czech Republic
T2 sequence (Q9HYN5 entry or part of it): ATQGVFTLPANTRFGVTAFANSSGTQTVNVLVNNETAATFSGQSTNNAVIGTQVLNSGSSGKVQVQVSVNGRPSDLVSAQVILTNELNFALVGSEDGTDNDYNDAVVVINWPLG
Description: as §1, with “PA-IIL (Dr. Wimmerova, Masaryk University, Brno, Czech Republic)” for “PA-IL (Sigma-Aldrich, St. Louis, Mo.)”, “Preformed conjugates of α-galactose-PAA-biotin (GlycoTech Corp, Gaithersburg, Md.) mixed with streptavidin-HRP (KPL Labs, Gaithersburg, Md.) are added to each well of plate 2 (60 μl/well of 2 μg/ml).” left out

PA-IIL binding to human epithelial cells, sequence (Q9HYN5 entry or part of it): as above

Row | Compound | inhibition of PA-IIL binding to human epithelial cells [1] | inhibition of PA-IL lectin (PA-IL lectin; qualitative) | inhibition of PA-IL relative to galactose (from IC50 determination) (PA-IL lectin; FIG. 7, times better than galactose) | inhibition of the PA-IIL lectin (PA-IIL lectin; qualitative) | inhibition of PA-IIL relative to fucose (from IC50 determination) (PA-IIL lectin; FIG. 8, times better than fucose) | inhibition of PA-IL in IC50 determination (PA-IL lectin; FIG. 7, qualitative) | inhibition of PA-IIL in IC50 determination (PA-IIL lectin; FIG. 8, qualitative)
1 | CC1OC(OC2C(CO)OCCC2OC2OC(CO)C(O)C(OC3OC(CO)C(O)C(O)C3O)C2O)C(O)C(O)C1O (stereo not drawn) [Glycomimetic 1] | inhibits binding | inhibited | 4 to 5 times | inhibited | 4 to 5 times | – | –
2 | OC[C@H]1O[C@H](OCC2O[C@@H](O)[C@H](O)[C@@H](O)[C@@H]2O)[C@H](O)[C@@H](O)[C@H]1O (stereo partly drawn) [Melibiose, Melibiose (Galα1-6Gal)] | – | inhibited | – | – | – | – | –
3 | C[C@H](O)[C@@H](O)[C@@H](O)[C@H](O)C=O [fucose] | – | not | – | – | – | inactive | –
4 | O=C[C@H](O)[C@@H](O)[C@@H](O)[C@H](O)CO [galactose] | no effect | inhibited | – | not | – | – | inactive
